In patent US5741811A, “Polythiophene anti-tumor agents” (Purdue Research Foundation, priority 1996, dated 1998):
Like-named read-outs stand apart in the source and are kept apart here.

Experiments:
Assay in all cases: NCI human tumor cell line panel growth inhibition
Type in all cases: cell-based
U251 CNS cancer cells = conditions: Homo sapiens, U-251, read-out: Log10 GI50 (converted)
TK-10 renal cancer cells = conditions: Homo sapiens, read-out: Log10 GI50 (converted)
[1] = system: HCT-116 colon cancer cells; conditions: Homo sapiens, read-out: Log10 GI50 (converted)
M-14 melanoma cells = conditions: M14, read-out: Log10 GI50 (converted)
[2] = system: T-47D breast cancer cells; conditions: T47D, read-out: Log10 GI50 (converted)
Procedure: The assay was carried out in 96-well microtiter plates. The MTT assay is based on the production of a dark blue formazan product by dehydrogenase in the mitochondria of live tumor cells after exposure to drug for 6 days [M. C. […] The SRB assay is based on the binding of the anionic group to the basic amino acid residues of cellular proteins after exposure of tumor cells to drug for 2 days [P. Skehan, R. Storeng, D. Scudiero, A. Monks, J. McMahon, D. Vistica, J. T. Warren, H. Bohesch, S. Kenney and M. R. Boyd, J. Nat.

[3] = system: RXF-393 renal cancer cells; conditions: Homo sapiens, read-out: Log10 GI50 (converted)
[4] = system: NCI-H460 lung cancer cells; conditions: Homo sapiens, read-out: Log10 GI50 (converted)
SNB-75 CNS cancer cells = conditions: Homo sapiens, read-out: Log10 GI50 (converted)
[5] = system: PC-3 prostate cancer cells; conditions: read-out: Log10 GI50 (converted)
From the text: (§1) The cytotoxic activity of the present polythiophene compounds have been measured utilizing three different assays or screens. The first screen measures the cytotoxicity against a panel of sixty different human tumor cell lines. This assay provides data regarding the general cytotoxicity of an individual compound. In particular this type of assay is useful in identifying compounds which have enhanced cytotoxic activity against slow growing tumors as compared to faster growing tumor cells such as leukemia tumor cell lines. The identification of such compounds is critical since previously identified antitumor agents have low cytotoxic activity against slower growing tumors. […] The specificity of a cytotoxic compound for tumor cell lines relative to normal cells is an important characteristic of an effective antitumor agent.
(§2) The length of a bar is indicative of differential cytotoxicity against a specific type of tumor cells or tumor panels.
(§3) The antitumor cytotoxicity of the thiophene compounds tested in the first two in vitro assays was measured by a microculture assay using either 3-(4,5-dimethylthiazol-2-yl)-2,5-diphenyltetrazolium bromide (MTT) or sulforhodamine B (SRB). [M. R. Boyd in "Principles and Practices of Oncology," V. T. DeVita, Jr., S. Hellman and S. A. Rosenberg (Eds.), Vol. 3, PPO Updates, Number 10, 1989.] This assay has an advantage over in vivo assay in that results are obtained within a week as opposed to several months. The assay was carried out in 96-well microtiter plates. The MTT assay is based on the production of a dark blue formazan product by dehydrogenase in the mitochondria of live tumor cells after exposure to drug for 6 days [M. C. Alley, D. A. Scudiero, A. Monks, M. L. Hursey, M. J. Czerwinski, D. L. Fine, B. J. Abbott, J. G. Mayo, R. H. Shoemaker and M. R. Boyd, Cancer Res., 48, 589, 1988.] Thus, only live cells are stained and can be measured at 570 nm. The SRB assay is based on the binding of the anionic group to the basic amino acid residues of cellular proteins after exposure of tumor cells to drug for 2 days [P. Skehan, R. Storeng, D. Scudiero, A. Monks, J. McMahon, D. Vistica, J. T. Warren, H. Bohesch, S. Kenney and M. R. Boyd, J. Nat. Cancer Inst., 82, 1107, 1990.] Thus, the total protein (viability) can be measured at 564 nm.

HOP-92 lung cancer cells = conditions: Homo sapiens, read-out: Log10 GI50 (converted)
From the text: as §1, §2, §3

[6] = system: MDA-MB-231/ATCC breast cancer cells; conditions: read-out: Log10 GI50 (converted)
From the text: as §1, §2, §3

[7] = system: MDA-N breast cancer cells; conditions: read-out: Log10 GI50 (converted)
From the text: as §1, §2, §3

KM12 colon cancer cells = conditions: Homo sapiens, read-out: Log10 GI50 (converted)
From the text: as §1, §2, §3

SK-MEL-28 melanoma cells = conditions: read-out: Log10 GI50 (converted)
From the text: as §1, §2, §3

[8] = system: DU-145 prostate cancer cells; conditions: read-out: Log10 GI50 (converted)
From the text: as §1, §2, §3

MCF7 breast cancer cells = conditions: read-out: Log10 GI50 (converted)
From the text: as §1, §2, §3

SK-MEL-5 melanoma cells = conditions: read-out: Log10 GI50 (converted)
From the text: as §1, §2, §3

[9] = system: OVCAR-4 ovarian cancer cells; conditions: Homo sapiens, read-out: Log10 GI50 (converted)
From the text: as §1, §2, §3

[10] = system: HCT-15 colon cancer cells; conditions: Homo sapiens, read-out: Log10 GI50 (converted)
HOP-62 lung cancer cells = conditions: Homo sapiens, read-out: Log10 GI50 (converted)
SF-295 CNS cancer cells = conditions: read-out: Log10 GI50 (converted)
SF-268 CNS cancer cells = conditions: read-out: Log10 GI50 (converted)
[11] = system: IGROV-1 ovarian cancer cells; conditions: Homo sapiens, read-out: Log10 GI50 (converted)
[12] = system: NCI-H322M lung cancer cells; conditions: Homo sapiens, read-out: Log10 GI50 (converted)
[13] = system: OVCAR-8 ovarian cancer cells; conditions: Homo sapiens, read-out: Log10 GI50 (converted)
Procedure: (§4) The first screen measures the cytotoxicity against a panel of sixty different human tumor cell lines. This assay provides data regarding the general cytotoxicity of an individual compound.
as §2, §3

[14] = system: SW-620 colon cancer cells; conditions: Homo sapiens, read-out: Log10 GI50 (converted)
Procedure: as §4, §2, §3

[15] = system: NCI-H23 lung cancer cells; conditions: read-out: Log10 GI50 (converted)
[16] = system: OVCAR-5 ovarian cancer cells; conditions: Homo sapiens, read-out: Log10 GI50 (converted)
[17] = system: HCC-2998 colon cancer cells; conditions: Homo sapiens, read-out: Log10 GI50 (converted)
HT29 colon cancer cells = conditions: Homo sapiens, HT-29, read-out: Log10 GI50 (converted)
UACC-257 melanoma cells = conditions: Homo sapiens, read-out: Log10 GI50 (converted)
SNB-19 CNS cancer cells = conditions: Homo sapiens, read-out: Log10 GI50 (converted)
[18] = system: COLO-205 colon cancer cells; conditions: Homo sapiens
786-0 renal cancer cells = conditions: read-out: Log10 GI50 (converted)
A-498 renal cancer cells = conditions: Homo sapiens, A498, read-out: Log10 GI50 (converted)
[19] = system: CAKI-1 renal cancer cells; conditions: Homo sapiens; CAKI-1, renal cancer; read-out: Log10 GI50 (converted)
[20] = system: OVCAR-3 ovarian cancer cells; conditions: Homo sapiens; OVCAR-3, ovarian cancer; read-out: Log10 GI50 (converted)
MALME-3M melanoma cells = conditions: read-out: Log10 GI50 (converted)
SK-MEL-2 melanoma cells = conditions: read-out: Log10 GI50 (converted)
[21] = system: BT-549 breast cancer cells; conditions: read-out: Log10 GI50 (converted)
From the text: as §1, §2, §3

[22] = system: HS 578T breast cancer cells; conditions: read-out: Log10 GI50 (converted)
From the text: as §1, §2, §3

[23] = system: MDA-MB-435 breast cancer cells; conditions: read-out: Log10 GI50 (converted)
From the text: as §1, §2, §3

SF-539 CNS cancer cells = conditions: read-out: Log10 GI50 (converted)
From the text: as §1, §2, §3

[24] = system: MCF7/ADR-RES breast cancer cells; conditions: read-out: Log10 GI50 (converted)
From the text: as §1, §2, §3

[25] = system: NCI-H226 lung cancer cells; conditions: Homo sapiens, read-out: Log10 GI50 (converted)
LOX IMVI melanoma cells = conditions: read-out: Log10 GI50 (converted)
UACC-62 melanoma cells = conditions: Homo sapiens, read-out: Log10 GI50 (converted)
ACHN renal cancer cells = conditions: read-out: Log10 GI50 (converted)

OCc1ccc(-c2ccc(-c3ccsc3)s2)s1 [drawing 37]
GI50 (U251 CNS cancer cells): 10.7 µM
GI50 (TK-10 renal cancer cells): 0.204 µM
GI50 [1]: 0.363 µM
GI50 (M-14 melanoma cells): 42.7 µM
GI50 [2]: 0.339 µM
GI50 [3]: 20.4 µM
GI50 [4]: 25.1 µM
GI50 (SNB-75 CNS cancer cells): 30.9 µM
GI50 [5]: 51.3 µM
GI50 (HOP-92 lung cancer cells): 38.9 µM
GI50 [6]: 28.2 µM
GI50 [7]: 0.501 µM
GI50 (KM12 colon cancer cells): 83.2 µM
GI50 (SK-MEL-28 melanoma cells): 36.3 µM
GI50 [8]: 66.1 µM
GI50 (MCF7 breast cancer cells): 0.257 µM
GI50 (SK-MEL-5 melanoma cells): 41.7 µM
GI50 [9]: 25.1 µM
GI50 [10]: 58.9 µM
GI50 (HOP-62 lung cancer cells): 20.4 µM
GI50 (SF-295 CNS cancer cells): 35.5 µM
GI50 (SF-268 CNS cancer cells): 53.7 µM
GI50 [11]: 0.219 µM
GI50 [12]: 16.2 µM
GI50 [13]: 57.5 µM
GI50 [14]: 47.9 µM
GI50 [15]: 24 µM
GI50 [16]: 0.417 µM
GI50 [17]: 0.977 µM
GI50 (HT29 colon cancer cells): 13.8 µM
GI50 (UACC-257 melanoma cells): 0.191 µM
GI50 (SNB-19 CNS cancer cells): 33.1 µM
GI50 ([18]; COLO 205, read-out: Log10 GI50 (converted)): 0.912 µM
GI50 (786-0 renal cancer cells): 57.5 µM
GI50 (A-498 renal cancer cells): 0.115 µM
GI50 [19]: 0.0229 µM
GI50 [20]: 0.158 µM
GI50 (MALME-3M melanoma cells): 38.9 µM

OCc1csc(-c2ccc(-c3ccc(CO)s3)s2)c1 [drawing 38]
GI50 (U251 CNS cancer cells): 5.62 µM
GI50 (TK-10 renal cancer cells): 0.0794 µM
GI50 [1]: 0.107 µM
GI50 (M-14 melanoma cells): > 10 µM
GI50 [2]: 0.224 µM
GI50 [3]: > 10 µM
GI50 [4]: 0.0389 µM
GI50 (SNB-75 CNS cancer cells): 2 µM
GI50 (SK-MEL-2 melanoma cells): > 10 µM
GI50 [21]: > 10 µM
GI50 [5]: > 10 µM
GI50 (HOP-92 lung cancer cells): 9.33 µM
GI50 [6]: > 10 µM
GI50 [7]: 9.55 µM
GI50 (KM12 colon cancer cells): > 10 µM
GI50 (SK-MEL-28 melanoma cells): > 10 µM
GI50 [22]: 7.76 µM
GI50 [23]: 4.37 µM
GI50 [8]: > 10 µM
GI50 (MCF7 breast cancer cells): 0.138 µM
GI50 (SK-MEL-5 melanoma cells): > 10 µM
GI50 (SF-539 CNS cancer cells): > 10 µM
GI50 [24]: > 10 µM
GI50 [9]: 0.302 µM
GI50 [25]: 0.0141 µM
GI50 [10]: > 10 µM
GI50 (LOX IMVI melanoma cells): > 10 µM
GI50 (SF-295 CNS cancer cells): > 10 µM
GI50 (SF-268 CNS cancer cells): > 10 µM
GI50 [11]: 0.145 µM
GI50 [12]: 4.27 µM
GI50 [13]: > 10 µM
GI50 (UACC-62 melanoma cells): 0.182 µM
GI50 [15]: > 10 µM
GI50 [16]: 0.126 µM
GI50 [17]: 5.89 µM
GI50 (HT29 colon cancer cells): 0.234 µM
GI50 (UACC-257 melanoma cells): 0.038 µM
GI50 (SNB-19 CNS cancer cells): > 10 µM
GI50 (ACHN renal cancer cells): > 10 µM
GI50 ([18]; COLO-205, colon cancer, read-out: Log10 GI50 (converted)): 0.191 µM
GI50 (A-498 renal cancer cells): 0.0158 µM
GI50 [19]: 0.0251 µM
GI50 [20]: 0.0692 µM
GI50 (MALME-3M melanoma cells): > 10 µM
